For orientation: Ki means a measure of affinity in units of concentration, obtained from inhibition or displacement. Low readings indicate higher affinity, high ones lower affinity.

The values that follow come from ChEMBL document CHEMBL1151740, “Structurally constrained hybrid derivatives containing octahydrobenzo[g or f]quinoline moieties for dopamine D2 and D3 receptors: binding characterization at D2/D3 receptors and elucidation of a pharmacophore model” (J Med Chem, 2008).

One experiment addresses D(2) dopamine receptor (Rattus norvegicus, UniProt P61169). Nature of the experiment: Displacement of [3H]Spiperone from rat dopamine D2L receptor expressed in HEK293 cells. The class given is cell-based.
For a further experiment, the target named is D(3) dopamine receptor (Rattus norvegicus, UniProt P19020). Nature of the experiment: Displacement of [3H]Spiperone from rat dopamine D3 receptor expressed in HEK293 cells. In kind it is cell-based. (In general: In a radioligand displacement assay an active substance lowers the binding of a labelled ligand.)
Sequence of D(3) dopamine receptor (P19020 whole entry): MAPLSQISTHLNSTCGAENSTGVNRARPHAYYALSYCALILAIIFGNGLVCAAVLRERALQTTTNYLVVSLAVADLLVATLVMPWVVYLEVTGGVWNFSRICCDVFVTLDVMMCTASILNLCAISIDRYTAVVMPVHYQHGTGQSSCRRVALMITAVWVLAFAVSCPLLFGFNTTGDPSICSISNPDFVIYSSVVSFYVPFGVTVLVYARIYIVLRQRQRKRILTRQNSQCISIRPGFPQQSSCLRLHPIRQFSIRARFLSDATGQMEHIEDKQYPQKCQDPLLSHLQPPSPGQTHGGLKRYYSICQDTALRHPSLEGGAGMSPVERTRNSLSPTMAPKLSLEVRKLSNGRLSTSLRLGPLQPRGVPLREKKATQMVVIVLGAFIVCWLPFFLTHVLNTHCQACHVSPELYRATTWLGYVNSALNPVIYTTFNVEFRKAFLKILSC

Sequence of D(2) dopamine receptor (P61169 whole entry): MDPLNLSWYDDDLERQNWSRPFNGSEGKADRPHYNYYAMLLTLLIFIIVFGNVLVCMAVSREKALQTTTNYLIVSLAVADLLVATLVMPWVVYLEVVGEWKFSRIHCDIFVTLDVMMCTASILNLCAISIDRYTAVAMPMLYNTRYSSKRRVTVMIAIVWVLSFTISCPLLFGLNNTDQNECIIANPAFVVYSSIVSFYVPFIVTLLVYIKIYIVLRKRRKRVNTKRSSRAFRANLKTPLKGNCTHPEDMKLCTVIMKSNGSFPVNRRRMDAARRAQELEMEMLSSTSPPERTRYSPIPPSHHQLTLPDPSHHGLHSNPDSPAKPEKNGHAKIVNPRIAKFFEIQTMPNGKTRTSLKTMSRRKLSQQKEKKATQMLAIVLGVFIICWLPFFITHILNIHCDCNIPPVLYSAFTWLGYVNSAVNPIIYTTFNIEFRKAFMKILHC

`Oc1ccc2c(c1)[C@@H]1CCCN(CCN3CCN(c4ccccc4)CC3)[C@H]1CC2`: the Ki on D(2) dopamine receptor stood at 219 nM; on D(3) dopamine receptor it was 72.2 nM.
Take `CCCN(CCN1CCN(c2ccccc2)CC1)[C@H]1CCc2nc(N)sc2C1`: the inhibitory constant (Ki) at D(2) dopamine receptor turned out to be 243 nM; at D(3) dopamine receptor it was 4.15 nM.
Consider `CCCN(CCN1CCN(c2ccccc2)CC1)[C@@H]1CCc2nc(N)sc2C1`, for which the Ki was found to be 1980 nM on D(2) dopamine receptor and 44 nM on D(3) dopamine receptor.
`CCCN(CCN1CCN(c2ccccc2)CC1)[C@H]1CCc2ccc(O)cc2C1`: the Ki at D(2) dopamine receptor was 809 nM; at D(3) dopamine receptor, 38.6 nM.
Taken in the same sequence, the figures for `Oc1cccc2c1CC[C@@H]1[C@@H]2CCCN1CCN1CCN(c2ccccc2)CC1` were 835 nM and 89.3 nM.
Consider `CCCN(CCN1CCN(c2ccc(-c3ccccc3)cc2)CC1)[C@H]1CCc2nc(N)sc2C1`, for which the Ki on D(2) dopamine receptor was 234 nM; at D(3) dopamine receptor, 0.925 nM.
Take `Oc1cccc2c1CC[C@H]1[C@H]2CCCN1CCN1CCN(c2ccccc2)CC1`: the Ki was found to be 23.6 nM at D(2) dopamine receptor and 4.95 nM at D(3) dopamine receptor.
Taken in the same sequence, the figures for `CCCN1CCC[C@@H]2Cc3c(O)cccc3C[C@H]21` (racemic) were 2780 nM and 395 nM.
As to `Oc1ccc2c(c1)C[C@H]1[C@@H](CCCN1CCCCN1CCN(c3ccccc3)CC1)C2` (racemic), the Ki stood at 289 nM at D(2) dopamine receptor and 102 nM on D(3) dopamine receptor.
As to `Oc1cccc2c1C[C@@H]1CCCN(CCN3CCN(c4cccc(Cl)c4Cl)CC3)[C@H]1C2` (racemic), the inhibition constant Ki came out at 136 nM on D(2) dopamine receptor and 168 nM at D(3) dopamine receptor.
For the compound `Oc1ccc2c(c1)C[C@H]1[C@@H](CCCN1CCN1CCN(c3ccccc3)CC1)C2` (racemic), the Ki at D(2) dopamine receptor is 2520 nM; on D(3) dopamine receptor it was 473 nM.
The matching figures for `Oc1ccc2c(c1)C[C@H]1[C@@H](CCCN1CCN1CCN(c3cccc(Cl)c3Cl)CC1)C2` (racemic): 338 nM and 256 nM.
Taken in the same sequence, the figures for `Oc1cccc2c1C[C@@H]1CCCN(CCN3CCN(c4ccccc4)CC3)[C@H]1C2` (racemic) were 1710 nM and 736 nM.
Taken in the same sequence, the figures for `Oc1ccc2c(c1)C[C@@H]1[C@@H](CCCN1CCN1CCN(c3cccc(Cl)c3Cl)CC1)C2` (racemic) were 148 nM and 187 nM.
Take `CCCN1CCC[C@H]2c3cccc(O)c3CC[C@@H]21` (relative stereo): the Ki at D(2) dopamine receptor stood at 347 nM; on D(3) dopamine receptor, 96 nM.
